According to ChEMBL document CHEMBL4330066, “Carbohydrate-naphthalene diimide conjugates as potential antiparasitic drugs: Synthesis, evaluation and structure-activity studies” (Eur J Med Chem, 2019):

Tests used:
Trypanosoma brucei = assay: Trypanocidal activity against Trypanosoma brucei Lister 427, antigenic type MiTat 1.2, clone 221a after 72 hrs by alamarBlue assay; format: functional, organism-based; details: Lister 427, 72 h
MRC5 = assay: Cytotoxicity against human MRC5 cells assessed as reduction in cell viability after 48 hrs by MTT assay; format: cell-based; details: MRC5, 48 h
[1] = Selectivity index, ratio of IC50 for human MRC5 cells to IC50 for Trypanosoma brucei Lister 427, antigenic type MiTat 1.2, clone 221a; format: toxicity; details: MRC5 cells versus Trypanosoma brucei Lister 427, read-out: Ratio IC50
Leishmania major [2] = assay: Leishmaniacidal activity against Leishmania major MHOM/IL/80/Friedlin promastigotes after 72 hrs by MTT assay; format: functional, organism-based
Leishmania major [3] = assay: Leishmaniacidal activity against Leishmania major MHOM/IL/80/Friedlin amastigotes infected in human THP1 cells after 72 hrs by luciferase luminescence assay; format: functional, organism-based; details: THP-1, 72 h
[4] = Cytotoxicity against human THP1 cells; format: cell-based; details: THP-1 cells, read-out: TC50 (the source's name)
[5] = Selectivity index, ratio of TC50 for human THP1 cells to IC50 for Leishmania major MHOM/IL/80/Friedlin amastigotes; format: toxicity; details: THP1 cells versus Leishmania major amastigotes, read-out: Selectivity Index

Row | Structure (SMILES) | IC50 (Trypanosoma brucei) | IC50 (MRC5) | selectivity ratio [1] | IC50 (Leishmania major [2]) | IC50 (Leishmania major [3]) | CC50 [4] | selectivity ratio [5]
1 | CN(C)CCCc1cc2c3c(c(NCCCn4cc(CO[C@@H]5O[C@H](CO)[C@@H](O)[C@H](O)[C@H]5O)nn4)cc4c3c1C(=O)N(CCCN(C)C)C4=O)C(=O)N(CCCN(C)C)C2=O | 150 nM | 850 nM | 5.7 | 490 nM | 2630 nM | > 10000 nM | > 3.8
2 | CN(C)CCCN1C(=O)c2ccc3c4c(c(NCCCn5cc(CCO[C@@H]6O[C@H](CO)[C@@H](O[C@H]7O[C@H](CO)[C@@H](O)[C@H](O)[C@H]7O)[C@H](O)[C@H]6O)nn5)cc(c24)C1=O)C(=O)N(CCCN(C)C)C3=O | 130 nM | 220 nM | 1.7 | 4680 nM | 430 nM | 1520 nM | 3.5
3 | CCCNc1cc2c3c(ccc4c3c1C(=O)N(CCCN(C)C)C4=O)C(=O)N(CCCN(C)C)C2=O | 9 nM |  | 40 |  | 610 nM | 3650 nM | 6
4 | CN(C)CCCc1cc2c3c(c(NCCCn4cc(CCO[C@H]5O[C@H](CO)[C@@H](O)[C@H](O)[C@@H]5O)nn4)cc4c3c1C(=O)N(CCCN(C)C)C4=O)C(=O)N(CCCN(C)C)C2=O | 310 nM | 5150 nM | 16.6 | 1970 nM | > 5000 nM | > 10000 nM | 
5 | CN(C)CCCc1cc2c3c(c(NCCCn4cc(CO[C@@H]5O[C@H](CO)[C@@H](O[C@H]6O[C@H](CO)[C@@H](O)[C@H](O)[C@H]6O)[C@H](O)[C@H]5O)nn4)cc4c3c1C(=O)N(CCCN(C)C)C4=O)C(=O)N(CCCN(C)C)C2=O | 310 nM | 9560 nM | 30.8 | 11400 nM |  |  | 
6 | CN(C)CCCN1C(=O)c2ccc3c4c(c(NCCCn5cc(COCCOCCOCCO[C@H]6O[C@H](CO)[C@@H](O)[C@H](O)[C@@H]6O)nn5)cc(c24)C1=O)C(=O)N(CCCN(C)C)C3=O | 130 nM | 1360 nM | 10.5 | 6120 nM |  |  | 
7 | CN(C)CCCc1cc2c3c(c(NCCCn4cc(CCO[C@@H]5O[C@H](CO)[C@@H](O[C@H]6O[C@H](CO)[C@@H](O)[C@H](O)[C@H]6O)[C@H](O)[C@H]5O)nn4)cc4c3c1C(=O)N(CCCN(C)C)C4=O)C(=O)N(CCCN(C)C)C2=O | 340 nM | 11100 nM | 32.7 | 2890 nM |  |  | 
8 | CN(C)CCCc1cc2c3c(c(NCCCn4cc(COCCOCCOCCO[C@@H]5O[C@H](CO)[C@@H](O)[C@H](O)[C@H]5O)nn4)cc4c3c1C(=O)N(CCCN(C)C)C4=O)C(=O)N(CCCN(C)C)C2=O | 350 nM | 8850 nM | 25.3 | 270 nM | 3590 nM | > 10000 nM | > 2.8
9 | CN(C)CCCN1C(=O)c2ccc3c4c(c(NCCCn5cc(CO[C@@H]6O[C@H](CO)[C@@H](O[C@@H]7O[C@H](CO)[C@H](O)[C@H](O)[C@H]7O)[C@H](O)[C@H]6O)nn5)cc(c24)C1=O)C(=O)N(CCCN(C)C)C3=O | 370 nM | 1240 nM | 3.4 | 1030 nM | 4720 nM | 9290 nM | 2
10 | CN(C)CCCN1C(=O)c2ccc3c4c(c(NCCCn5cc(CCO[C@H]6O[C@H](CO)[C@@H](O)[C@H](O)[C@@H]6O)nn5)cc(c24)C1=O)C(=O)N(CCCN(C)C)C3=O | 180 nM | 170 nM | 0.9 | 2790 nM |  |  | 
11 | CCCNc1cc2c3c(c(CCCN(C)C)cc4c3c1C(=O)N(CCCN(C)C)C4=O)C(=O)N(CCCN(C)C)C2=O | 3 nM | 80 nM | 26.7 | 740 nM | 3800 nM |  | 
12 | CN(C)CCCc1cc2c3c(c(NCCCn4cc(COCCOCCOCCO[C@@H]5O[C@H](CO)[C@@H](O[C@@H]6O[C@H](CO)[C@H](O)[C@H](O)[C@H]6O)[C@H](O)[C@H]5O)nn4)cc4c3c1C(=O)N(CCCN(C)C)C4=O)C(=O)N(CCCN(C)C)C2=O | 830 nM | 7040 nM | 8.5 | 8980 nM |  |  | 
13 | CN(C)CCCN1C(=O)c2ccc3c4c(c(NCCCn5cc(CO[C@@H]6O[C@H](CO)[C@@H](O[C@H]7O[C@H](CO)[C@@H](O)[C@H](O)[C@H]7O)[C@H](O)[C@H]6O)nn5)cc(c24)C1=O)C(=O)N(CCCN(C)C)C3=O | 270 nM | 4340 nM | 16.1 | 6790 nM |  |  | 
14 | CN(C)CCCN1C(=O)c2ccc3c4c(c(NCc5cn(CCO[C@@H]6O[C@H](CO)[C@@H](O)[C@H](O)[C@H]6O)nn5)cc(c24)C1=O)C(=O)N(CCCN(C)C)C3=O | 17 nM |  |  |  | 4420 nM | 8650 nM | 2
15 | CN(C)CCCN1C(=O)c2ccc3c4c(c(NCCCn5cc(CO[C@H]6O[C@H](CO)[C@@H](O)[C@H](O)[C@@H]6O)nn5)cc(c24)C1=O)C(=O)N(CCCN(C)C)C3=O | 210 nM | 230 nM | 1.1 | 2410 nM | 470 nM | 1780 nM | 3.8
16 | CN(C)CCCc1cc2c3c(c(NCCCn4cc(COCCOCCOCCO[C@H]5O[C@H](CO)[C@@H](O)[C@H](O)[C@@H]5O)nn4)cc4c3c1C(=O)N(CCCN(C)C)C4=O)C(=O)N(CCCN(C)C)C2=O | 190 nM | 6470 nM | 34 | 4750 nM |  |  | 
17 | CN(C)CCCc1cc2c3c(c(NCCCn4cc(CO[C@H]5O[C@H](CO)[C@@H](O)[C@H](O)[C@@H]5O)nn4)cc4c3c1C(=O)N(CCCN(C)C)C4=O)C(=O)N(CCCN(C)C)C2=O | 440 nM | 6610 nM | 15 | 180 nM | > 5000 nM | > 10000 nM | 
18 | CN(C)CCCc1cc2c3c(c(NCCCn4cc(CCO[C@@H]5O[C@H](CO)[C@@H](O[C@@H]6O[C@H](CO)[C@H](O)[C@H](O)[C@H]6O)[C@H](O)[C@H]5O)nn4)cc4c3c1C(=O)N(CCCN(C)C)C4=O)C(=O)N(CCCN(C)C)C2=O | 530 nM | 7160 nM | 13.5 | 280 nM | > 5000 nM | > 10000 nM | 
19 | CN(C)CCCN1C(=O)c2ccc3c4c(c(NCc5cn([C@@H]6O[C@H](CO)[C@@H](O)[C@H](O)[C@H]6O)nn5)cc(c24)C1=O)C(=O)N(CCCN(C)C)C3=O | 24 nM |  |  |  | 3910 nM | 8100 nM | 2.1
20 | CN(C)CCCc1cc2c3c(c(NCCCn4cc(CO[C@@H]5O[C@H](CO)[C@@H](O[C@@H]6O[C@H](CO)[C@H](O)[C@H](O)[C@H]6O)[C@H](O)[C@H]5O)nn4)cc4c3c1C(=O)N(CCCN(C)C)C4=O)C(=O)N(CCCN(C)C)C2=O | 370 nM | 6610 nM | 17.9 | 20000 nM |  |  | 
21 | CN(C)CCCc1cc2c3c(c(NCCCn4cc(COCCOCCOCCO[C@@H]5O[C@H](CO)[C@@H](O[C@H]6O[C@H](CO)[C@@H](O)[C@H](O)[C@H]6O)[C@H](O)[C@H]5O)nn4)cc4c3c1C(=O)N(CCCN(C)C)C4=O)C(=O)N(CCCN(C)C)C2=O | 390 nM | > 20000 nM | > 51 | 10700 nM |  |  | 
